Four molecules from patent US8932853B2, “Method for manufacturing pancreatic-hormone-producing cells” (Takeda Pharmaceutical Company Limited, priority 2009, dated 2015) can be followed below.

Entries after “also recorded” stand apart in the source; their conditions may differ.

For assay [1], the system named is endodermal cells induced from human iPS cells. The assay can be described thus: immunofluorescent staining with anti-PDX1 antibody after step (3). As to conditions: added simultaneously with retinoic acid (2 μM) for 7 days, day 3 to day 10; Noggin 100 ng/ml, dorsomorphin 1 μM.
Assay [2] deals with progenitor cells of pancreatic hormone-producing cells induced from human iPS cells. As to the kind of experiment: quantitative RT-PCR of insulin and PDX1 after step (4). Format: cell-based. As to conditions: added in step (4) from day 10; forskolin 10 μM, nicotinamide 10 mM, dexamethasone 10 μM, ALK5 inhibitor II 5 μM; measured on day 12, 16 and 20; vs control without inducing factors.
Experimental: The expression level of PDX1, which is pancreatic progenitor cells marker, and insulin, which is pancreatic β cells (insulin-producing cells) marker, was measured in the same manner as in Example 1.
The medium was changed once on day 7 of induction. […] The medium was changed every 3-4 days. After culture, the expression level of insulin was measured in the same manner as in Experimental Example 1.
The medium was changed once on day 7 of induction. […] The medium was changed every 5 days.
After culture under each condition, the expression levels of insulin in the cells on day 12 of differentiation induction, on day 16 of differentiation induction and day 20 of differentiation induction were measured in the same manner as in Example 1.

For assay [3] the test system is unchanged. The assay can be described thus: immunofluorescent staining with anti-insulin antibody after step (4). Format: cell-based. As to conditions: each added alone in step (4), day 10 to day 21; forskolin 10 μM, dibutyl cAMP 500 μM, IBMX 200 μM, ALK5 inhibitor II 5 μM, A-83-01 0.5 μM, SB431542 10 μM, TGFβRI kinase inhibitor VIII 2 μM, dexamethasone 10 μM, hydrocortisone 5 μM, betamethasone 2 μM, beclomethasone 1 μM.

The subject of assay [4] is endodermal cells induced from human iPS cells. Format: cell-based. As to conditions: added simultaneously with dorsomorphin (1 μM) and retinoic acid (2 μM) day 3 to day 10; SB431542 5 μM, ALK5 inhibitor II 2 μM, A-83-01 0.2 μM, TGFβRI kinase inhibitor VIII 0.2 μM; vs dorsomorphin and retinoic acid alone. The protocol:
The dorsomorphin is an inhibitor of AMP-activated protein kinase (AMPK), and an inhibitor of ALK2, ALK3 and ALK6 from among activin receptor-like kinases (ALK). In addition, SB431542 is an inhibitor of ALK4, ALK5 and ALK7 from among ALKs.
As a control, the medium was changed to one added with dorsomorphin and retinoic acid alone (Ctrl). […] After the culture, the expression level of NGN3, which is progenitor cells of pancreatic hormone-producing cells marker, was measured in the same manner as in Example 1.

For assay [5], the system named is human iPS cells (253G1 strain). As to the kind of experiment: quantitative RT-PCR of BRACHYURY and SOX17 during induction of human iPS cells into endodermal cells, steps (1)-(2). Format: cell-based. As to conditions: added with activin A (100 ng/ml) only the first day, CHIR99021 3 μM, Wnt3a 25 ng/ml, relative to GAPDH. From the text: As a first stage for induction of differentiation of human iPS cells (iPS cells obtained by introducing Oct3/4 gene, Klf4 gene and Sox2 gene: see Nat Biotechnol 2008; 26: 101-106) into pancreas cells (particularly pancreatic hormone-producing cells), differentiation of human iPS cells was induced into endodermal cells by using a 96 well plate.
As the human iPS cells, 253G1 strain (iPS cell line produced by expressing OCT4/SOX2/KLF4 with retrovirus; Nature Biotechnology 26, 101-106) was used. Maintenance culture of the iPS cells in an undifferentiated state was performed using mitomycin-treated mouse fibroblast (MEFs) seeded on a gelatin-coated plate as feeder cells, and a medium for primate ES cells (ReproCELL Incorporated) added with 4 ng/ml bFGF (PeproTech EC) and 0.5× Penicillin-streptomycin (SIGMA) as a medium at 37° C. under 5% CO2. The medium was changed every day, the cell mass was detached every 4-5 days using a cell detachment solution for primate ES cell (ReproCELL Incorporated), and passaged by seeding on new feeder cells.
As a preculture for differentiation induction into endodermal cells, undifferentiated iPS cells were seeded in a 96 well plate. First, iPS cells maintained in a cell mass was treated with 0.25% trypsin-1 mM EDTA solution (GIBCO) and dissociated until they became single cells. Then, iPS cells dispersed in a medium were seeded in a 96 well plate at a density of 2×10^4 cells per well and cultured at 37° C. under 5% CO2 for 1 day. The 96 well plate used had been gelatin-coated, seeded with 5×10^3 MEFs and cultured at 37° C. under 5% CO2 for 5 hr. In addition, as a culture medium for seeding, a medium for primate ES cells added with 10 μM Y-27632 (Wako Pure Chemical Industries, Ltd.) was used. One day after seeding, the medium was changed to a medium for primate ES cells without Y-27632, and the cells were further cultured for 2 days until they became confluent.
Differentiation of iPS cells into endodermal cells was induced according to the following method. First, the confluent cells were washed with RPMI medium (GIBCO), RPMI medium containing various differentiation-inducing factors and 2% fetal bovine serum (FBS) was added, and the mixture was cultured for 1 day. […]
To examine variation in the expression of endoderm differentiation marker when cultured under each condition, differentiation-induced cells were recovered over time, and the total RNA fractions were purified using RNeasy96 (Qiagen). Using a PrimeScript RT reagent kit (Takara Bio Inc.), cDNA was synthesized, and quantitative RT-PCR was performed, whereby the gene expression level of BRACHYURY, which is a primitive streak marker, and SOX17, which is an endodermal marker, was measured.

Assay [6] relates to human iPS cells (253G1 strain). As to the kind of experiment: immunofluorescent staining with anti-SOX17 antibody on day 3 of differentiation induction. Format: cell-based. As to conditions: added with activin A (100 ng/ml) for 1 day, then activin A alone 2 days, CHIR99021 3 μM, Wnt3a 25 ng/ml, SB415286 3 μM, SB216763 20 μM. The protocol:
To examine expression of SOX17 protein after culture for 3 days, immunofluorescent staining using an anti-SOX17 antibody was performed. After culture up to day 3 in the same manner as in FIG. 1, the cells were fixed with 2% para-formaldehyde (PFA) for 10 min and further for 20 min with 4% PFA at room temperature.
Whether even use of a GSK3 inhibitor other than CHIR99021 in step (1) enables differentiation induction into endodermal cells was examined. The differentiation of human iPS cells into endodermal cells was induced according to the following method. […] Thereafter, the cells were washed with RPMI medium (GIBCO), and cultured for 1 day in RPMI medium containing various GSK3 inhibitors, activin A (100 ng/ml) and 2% fetal bovine serum (FBS). […] As a control, the cells were treated with a medium added only with activin A and free of GSK3 inhibitor. After culture for 1 day, the cells were washed with RPMI medium, and further cultured for 2 days in RPMI medium added with 2% FBS and 100 ng/ml activin A.
To examine expression of SOX17 protein on day 3 of differentiation induction, immunofluorescent staining using an anti-SOX17 antibody was performed. 4% PFA was added to the cells on day 3 of culture under each condition, the mixture was incubated at room temperature for 30 min to fix the cells.

As for `c1cc(-c2cnn3cc(-c4ccc(OCCN5CCCCC5)cc4)cnc23)ccn1` [dorsomorphin, 6-[4-(2-piperidin-1-ylethoxy)phenyl]-3-pyridin-4-ylpyrazolo[1,5-a]pyrimidine], the “differentiation into PDX1-positive cells” value in assay [1] is listed as “remarkably induced; also recorded: many cells were induced into PDX1-positive cells”.

Turning to `Cc1cccc(-c2n[nH]cc2-c2ccc3ncccc3n2)n1` [ALK5 inhibitor II, 2-[3-[6-methylpyridin-2-yl]-1H-pyrazol-4-yl]-1,5-naphthyridine], in assay [2], the “expression level of insulin” value is recorded as “increased markedly; also recorded: high value”. In addition, the “positive rate of insulin-expressing cells” value in assay [3] is “remarkably increased; also recorded: induced differentiation into insulin-positive cells with high efficiency”. Also, the “expression level of NGN3” value in assay [4] is “increased remarkably”.

B1: Wnt3a: differentiation-inducing factor generally used for endoderm induction along with activin A (protein, UniProt P56704 19-352, looked up)
Protein Wnt-3a: SYPIWWSLAVGPQYSSLGSQPILCASIPGLVPKQLRFCRNYVEIMPSVAEGIKIGIQECQHQFRGRRWNCTTVHDSLAIFGPVLDKATRESAFVHAIASAGVAFAVTRSCAEGTAAICGCSSRHQGSPGKGWKWGGCSEDIEFGGMVSREFADARENRPDARSAMNRHNNEAGRQAIASHMHLKCKCHGLSGSCEVKTCWWSQPDFRAIGDFLKDKYDSASEMVVEKHRESRGWVETLRPRYTYFKVPTERDLVYYEASPNFCEPNPETGSFGTRDRTCNVSSHGIDGCDLLCCGRGHNARAERRREKCRCVFHWCCYVSCQECTRVYDVHTCK
On to B1, for which the “expression level of SOX17 (endodermal marker)” value in assay [5] (then activin A alone 2 days, days 2-3) was “also lower than with a treatment with CHIR99021; also recorded: high value”. Besides, the “expression level of BRACHYURY (primitive streak marker)” value in assay [5] (day 1 of differentiation induction) is “lower than with a treatment with CHIR99021”. Further, the “ratio of cells expressing SOX17 protein” value in assay [6] was “a part of the cells also expressed SOX17 protein; also recorded: remarkably detected”.

B2: Noggin: BMP antagonist (protein, UniProt Q13253 28-232, looked up)
Noggin: QHYLHIRPAPSDNLPLVDLIEHPDPIFDPKEKDLNETLLRSLLGGHYDPGFMATSPPEDRPGGGGGAAGGAEDLAELDQLLRQRPSGAMPSEIKGLEFSEGLAQGKKQRLSKKLRRKLQMWLWSQTFCPVLYAWNDLGSRFWPRYVKVGSCFSKRSCSVPEGMVCKPSKSVHLTVLRWRCQRRGGQRCGWIPIQYPIISECKCSC
As to B2, the “differentiation into PDX1-positive cells” value in assay [1] is listed as “remarkably induced; also recorded: many cells were induced into PDX1-positive cells”.
